# Measured values as given in patent US10710978B2, “STK4 inhibitors for treatment of hematologic malignancies” (Dana-Farber Cancer Institute, Inc., priority 2015, dated 2020).
# Like-named read-outs stand apart in the source and are kept apart here.
# Key:
# Experiment in all cases: KiNativ assay
# Format in all cases: binding
# Conditions in all cases: H929 live cell
# TYK2 domain2 = TYK2 domain2 (Homo sapiens (Human), UniProt P29597)
# Experimental: (§1) Biochemical IC50s of the compounds of the present disclosure against various kinases were measured in a KiNativ assay. Compounds were screened in duplicate at 10 μM in H929 live cell. IC50 was measured via Mass spectroscopy (MS).
# FER = FER (Homo sapiens (Human), UniProt P16591)
# Sequence of FER (P16591 whole entry): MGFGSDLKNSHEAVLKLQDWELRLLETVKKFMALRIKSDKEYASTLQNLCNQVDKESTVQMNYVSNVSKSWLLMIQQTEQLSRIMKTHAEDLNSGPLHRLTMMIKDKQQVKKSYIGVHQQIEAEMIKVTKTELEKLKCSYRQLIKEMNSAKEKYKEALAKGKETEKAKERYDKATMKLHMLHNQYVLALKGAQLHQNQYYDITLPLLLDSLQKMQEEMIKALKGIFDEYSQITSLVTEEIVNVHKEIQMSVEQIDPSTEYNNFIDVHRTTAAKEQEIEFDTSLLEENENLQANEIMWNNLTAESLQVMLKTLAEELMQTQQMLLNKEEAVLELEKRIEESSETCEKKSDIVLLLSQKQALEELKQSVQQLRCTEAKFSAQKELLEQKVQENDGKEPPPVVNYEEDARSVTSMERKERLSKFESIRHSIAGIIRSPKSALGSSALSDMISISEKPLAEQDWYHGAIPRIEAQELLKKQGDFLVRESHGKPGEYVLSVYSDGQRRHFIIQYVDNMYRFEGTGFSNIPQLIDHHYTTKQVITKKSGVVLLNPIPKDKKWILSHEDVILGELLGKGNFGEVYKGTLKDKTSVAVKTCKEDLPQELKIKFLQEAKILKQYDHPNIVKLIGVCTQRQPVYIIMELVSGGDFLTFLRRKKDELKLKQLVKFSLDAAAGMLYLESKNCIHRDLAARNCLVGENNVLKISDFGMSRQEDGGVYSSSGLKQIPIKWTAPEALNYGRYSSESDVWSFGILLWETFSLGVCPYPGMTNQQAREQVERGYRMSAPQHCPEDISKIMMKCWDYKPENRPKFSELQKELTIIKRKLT
# Experimental: as §1
# KSR1, KSR2 = tested on: KSR1, KSR2
# Experimental: as §1
# p70S6Kb = p70S6Kb (Homo sapiens (Human), UniProt Q9UBS0)
# Sequence of p70S6Kb (Q9UBS0 whole entry): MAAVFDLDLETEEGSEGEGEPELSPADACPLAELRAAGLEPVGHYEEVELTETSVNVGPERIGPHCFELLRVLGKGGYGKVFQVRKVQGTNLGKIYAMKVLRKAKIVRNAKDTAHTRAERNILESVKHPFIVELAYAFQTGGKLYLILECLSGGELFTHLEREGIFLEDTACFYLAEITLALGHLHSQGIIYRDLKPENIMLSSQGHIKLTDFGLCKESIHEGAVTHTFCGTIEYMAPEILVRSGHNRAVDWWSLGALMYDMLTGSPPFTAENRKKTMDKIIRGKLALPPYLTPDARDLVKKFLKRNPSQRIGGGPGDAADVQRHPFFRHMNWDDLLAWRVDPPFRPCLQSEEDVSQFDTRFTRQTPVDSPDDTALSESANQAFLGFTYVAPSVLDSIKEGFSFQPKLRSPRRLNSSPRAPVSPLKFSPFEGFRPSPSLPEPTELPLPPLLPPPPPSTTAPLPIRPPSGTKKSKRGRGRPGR
# Experimental: as §1
# GSK3B = GSK3B (Homo sapiens (Human), UniProt P49841)
# Sequence of GSK3B (P49841 whole entry): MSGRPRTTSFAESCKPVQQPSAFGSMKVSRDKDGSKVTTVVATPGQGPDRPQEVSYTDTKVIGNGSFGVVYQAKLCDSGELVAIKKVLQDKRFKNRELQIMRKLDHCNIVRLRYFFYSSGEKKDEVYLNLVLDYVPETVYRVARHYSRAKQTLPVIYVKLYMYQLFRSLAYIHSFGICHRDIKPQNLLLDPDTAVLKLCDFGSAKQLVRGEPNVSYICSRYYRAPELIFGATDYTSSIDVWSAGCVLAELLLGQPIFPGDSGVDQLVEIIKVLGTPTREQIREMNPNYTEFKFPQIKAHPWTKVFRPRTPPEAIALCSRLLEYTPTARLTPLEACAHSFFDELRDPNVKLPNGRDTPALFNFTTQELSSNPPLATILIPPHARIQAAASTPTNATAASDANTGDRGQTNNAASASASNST
# Experimental: as §1
# eEF2K = eEF2K (Homo sapiens (Human), UniProt O00418)
# Experimental: as §1
# JAK1 domain2 = JAK1 domain2 (Homo sapiens (Human), UniProt P23458)
# Experimental: as §1
# PI4KB = PI4KB (Homo sapiens (Human), UniProt Q9UBF8)
# Experimental: as §1
# NEK8 = NEK8 (Homo sapiens (Human), UniProt Q86SG6)
# Experimental: as §1
# MAP3K4 = MAP3K4 (Homo sapiens (Human), UniProt Q9Y6R4)
# Experimental: as §1
# AKT1 = AKT1 (Homo sapiens (Human), UniProt P31749)
# Sequence of AKT1 (P31749 whole entry): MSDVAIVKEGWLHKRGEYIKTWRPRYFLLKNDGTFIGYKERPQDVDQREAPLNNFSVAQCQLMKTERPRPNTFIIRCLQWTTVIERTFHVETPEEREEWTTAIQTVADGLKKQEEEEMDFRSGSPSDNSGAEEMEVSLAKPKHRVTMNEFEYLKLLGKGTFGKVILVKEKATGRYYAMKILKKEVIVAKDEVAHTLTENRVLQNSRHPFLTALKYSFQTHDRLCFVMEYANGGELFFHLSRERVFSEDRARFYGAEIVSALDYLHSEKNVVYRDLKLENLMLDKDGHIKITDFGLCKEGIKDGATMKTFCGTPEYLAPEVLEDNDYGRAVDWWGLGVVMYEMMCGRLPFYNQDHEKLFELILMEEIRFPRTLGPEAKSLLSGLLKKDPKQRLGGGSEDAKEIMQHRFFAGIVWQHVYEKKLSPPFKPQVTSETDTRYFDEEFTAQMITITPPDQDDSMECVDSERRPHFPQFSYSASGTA
# Experimental: as §1
# JAK3 domain2 = JAK3 domain2 (Homo sapiens (Human), UniProt P52333)
# Sequence of JAK3 domain2 (P52333 whole entry, the tested form may be a part): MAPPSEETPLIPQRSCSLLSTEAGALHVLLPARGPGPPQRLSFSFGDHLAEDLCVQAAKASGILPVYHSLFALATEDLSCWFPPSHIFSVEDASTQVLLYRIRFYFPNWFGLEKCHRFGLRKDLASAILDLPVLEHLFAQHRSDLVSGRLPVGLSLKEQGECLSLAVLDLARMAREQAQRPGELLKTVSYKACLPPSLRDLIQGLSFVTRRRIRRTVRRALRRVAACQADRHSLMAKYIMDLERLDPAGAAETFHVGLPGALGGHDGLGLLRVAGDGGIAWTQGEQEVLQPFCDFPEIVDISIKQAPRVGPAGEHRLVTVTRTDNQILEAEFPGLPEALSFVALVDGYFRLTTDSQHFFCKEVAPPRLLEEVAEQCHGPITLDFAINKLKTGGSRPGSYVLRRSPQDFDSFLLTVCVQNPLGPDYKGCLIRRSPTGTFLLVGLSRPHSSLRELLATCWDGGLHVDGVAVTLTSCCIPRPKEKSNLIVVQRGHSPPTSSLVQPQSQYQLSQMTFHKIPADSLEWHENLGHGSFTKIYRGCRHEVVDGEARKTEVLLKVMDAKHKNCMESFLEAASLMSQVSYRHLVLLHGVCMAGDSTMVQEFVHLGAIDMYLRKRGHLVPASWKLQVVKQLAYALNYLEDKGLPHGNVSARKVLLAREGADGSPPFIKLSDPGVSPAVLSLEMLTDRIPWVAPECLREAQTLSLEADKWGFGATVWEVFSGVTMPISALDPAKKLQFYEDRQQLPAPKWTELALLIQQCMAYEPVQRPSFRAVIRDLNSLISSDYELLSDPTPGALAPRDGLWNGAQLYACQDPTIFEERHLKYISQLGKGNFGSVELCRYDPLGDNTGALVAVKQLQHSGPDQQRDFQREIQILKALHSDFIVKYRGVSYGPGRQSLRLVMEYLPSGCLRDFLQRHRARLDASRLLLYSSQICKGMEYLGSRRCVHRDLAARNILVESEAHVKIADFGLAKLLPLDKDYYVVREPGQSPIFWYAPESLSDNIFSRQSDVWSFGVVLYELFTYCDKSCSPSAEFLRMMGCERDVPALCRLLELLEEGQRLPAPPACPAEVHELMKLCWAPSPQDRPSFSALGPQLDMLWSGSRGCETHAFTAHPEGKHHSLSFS
# Experimental: as §1
# PKCz = PKCz (Homo sapiens (Human), UniProt Q05513)
# Experimental: as §1
# DGKH = DGKH (Homo sapiens (Human), UniProt Q86XP1)
# Experimental: as §1
# MST2 = MST2 (Homo sapiens (Human), UniProt Q13188)
# Experimental: as §1
# AurB = AurB (Homo sapiens (Human), UniProt Q96GD4)
# Sequence of AurB (Q96GD4 whole entry): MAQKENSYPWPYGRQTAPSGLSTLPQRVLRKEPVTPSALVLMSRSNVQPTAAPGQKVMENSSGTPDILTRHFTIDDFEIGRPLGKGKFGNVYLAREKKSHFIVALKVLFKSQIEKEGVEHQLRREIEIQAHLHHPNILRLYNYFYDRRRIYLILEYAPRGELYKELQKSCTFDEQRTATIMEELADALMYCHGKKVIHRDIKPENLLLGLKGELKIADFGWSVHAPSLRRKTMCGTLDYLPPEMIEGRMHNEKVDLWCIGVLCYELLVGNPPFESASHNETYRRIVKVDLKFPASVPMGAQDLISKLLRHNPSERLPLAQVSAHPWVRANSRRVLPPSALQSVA
# Experimental: as §1
# PKD3 = PKD3 (Homo sapiens (Human), UniProt O94806)
# Experimental: as §1
# CaMKK2 = CaMKK2 (Homo sapiens (Human), UniProt Q96RR4)
# Experimental: as §1
# PIK3C3 = PIK3C3 (Homo sapiens (Human), UniProt Q8NEB9)
# Experimental: as §1
# MARK3 = MARK3 (Homo sapiens (Human), UniProt P27448)
# Experimental: as §1
# CK1g2 = CK1g2 (Homo sapiens (Human), UniProt P78368)
# Sequence of CK1g2 (P78368 whole entry): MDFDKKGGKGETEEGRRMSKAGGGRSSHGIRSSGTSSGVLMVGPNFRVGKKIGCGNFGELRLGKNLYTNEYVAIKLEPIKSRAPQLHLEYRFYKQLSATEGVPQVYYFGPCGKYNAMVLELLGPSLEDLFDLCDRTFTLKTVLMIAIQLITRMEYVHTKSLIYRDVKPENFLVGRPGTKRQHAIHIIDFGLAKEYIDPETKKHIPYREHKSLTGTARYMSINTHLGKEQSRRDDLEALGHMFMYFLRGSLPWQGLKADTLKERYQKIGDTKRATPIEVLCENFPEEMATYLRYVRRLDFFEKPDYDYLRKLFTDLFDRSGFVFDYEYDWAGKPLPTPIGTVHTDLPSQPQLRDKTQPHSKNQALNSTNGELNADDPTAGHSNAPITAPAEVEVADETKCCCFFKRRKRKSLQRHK
# Experimental: as §1
# MAP3K5 = MAP3K5 (Homo sapiens (Human), UniProt Q99683)
# Experimental: as §1
# PLK1 = PLK1 (Homo sapiens (Human), UniProt P53350)
# Experimental: as §1
# HPK1 = HPK1 (Homo sapiens (Human), UniProt Q92918)
# Experimental: as §1
# IKKa = IKKa (Homo sapiens (Human), UniProt O15111)
# Experimental: as §1
# CaMK2g = CaMK2g (Homo sapiens (Human), UniProt Q13555)
# Experimental: as §1
# NEK7 = NEK7 (Homo sapiens (Human), UniProt Q8TDX7)
# Sequence of NEK7 (Q8TDX7 whole entry): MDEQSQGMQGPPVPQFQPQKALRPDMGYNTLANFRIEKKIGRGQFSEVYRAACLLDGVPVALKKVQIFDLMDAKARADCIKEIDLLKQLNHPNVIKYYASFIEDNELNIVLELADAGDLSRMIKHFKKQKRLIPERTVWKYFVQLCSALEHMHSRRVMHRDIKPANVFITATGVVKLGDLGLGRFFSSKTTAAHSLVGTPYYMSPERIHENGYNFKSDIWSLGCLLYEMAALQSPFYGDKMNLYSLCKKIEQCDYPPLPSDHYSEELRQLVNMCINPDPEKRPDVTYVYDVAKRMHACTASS
# Experimental: as §1
# NEK1 = NEK1 (Homo sapiens (Human), UniProt Q96PY6)
# Experimental: as §1
# IRE1 = IRE1 (Homo sapiens (Human), UniProt O75460)
# Experimental: as §1
# AMPKa1, AMPKa2 = tested on: AMPKa1, AMPKa2
# Experimental: as §1
# OSR1 = OSR1 (Homo sapiens (Human), UniProt O95747)
# Sequence of OSR1 (O95747 whole entry): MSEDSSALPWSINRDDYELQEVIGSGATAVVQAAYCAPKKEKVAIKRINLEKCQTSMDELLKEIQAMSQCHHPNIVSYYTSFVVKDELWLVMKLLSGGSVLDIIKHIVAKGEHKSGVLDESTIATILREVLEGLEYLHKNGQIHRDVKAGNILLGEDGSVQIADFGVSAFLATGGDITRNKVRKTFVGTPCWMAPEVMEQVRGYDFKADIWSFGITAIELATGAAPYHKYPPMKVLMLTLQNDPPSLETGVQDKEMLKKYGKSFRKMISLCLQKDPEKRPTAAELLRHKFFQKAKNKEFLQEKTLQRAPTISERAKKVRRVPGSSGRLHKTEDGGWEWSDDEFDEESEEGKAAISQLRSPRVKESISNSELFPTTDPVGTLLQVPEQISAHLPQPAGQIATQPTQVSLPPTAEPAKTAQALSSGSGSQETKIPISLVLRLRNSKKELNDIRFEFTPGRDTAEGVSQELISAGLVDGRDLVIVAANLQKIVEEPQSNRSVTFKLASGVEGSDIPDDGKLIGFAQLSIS
# Experimental: as §1
# PIK3CB = PIK3CB (Homo sapiens (Human), UniProt P42338)
# Experimental: as §1
# STLK3 = STLK3 (Homo sapiens (Human), UniProt Q9UEW8)
# Experimental: as §1
smiles,measurement,setting,value
"Nc1ncc(-c2cccc3ncsc23)cc1-c1ccc2c(c1)CCNC2=O [Compound I-13, 6-(2-amino-5-(benzo[d]thiazol-7-yl)pyridin-3-yl)-3,4-dihydroisoquinolin-1(2H)-one]",inhibition at 10 µM,TYK2 domain2; read-out: % inhibition (range),0%
same,inhibition at 10 µM,TYK2 domain2; read-out: inhibition (10 μM),0.6%
same,inhibition at 10 µM,FER; read-out: % inhibition (range),0%
same,inhibition at 10 µM,FER; read-out: inhibition (10 μM),4.2%
same,% inhibition (range),"KSR1, KSR2; 10 μM",0.0%
same,inhibition (10 μM),"KSR1, KSR2",−6.2%
same,inhibition at 10 µM,p70S6Kb; read-out: % inhibition (range),0%
same,inhibition at 10 µM,p70S6Kb; read-out: inhibition (10 μM),-17.4%
same,inhibition at 10 µM,GSK3B; read-out: % inhibition (range),75 to 90%
same,inhibition at 10 µM,GSK3B; read-out: inhibition (10 μM),88.4%
same,inhibition at 10 µM,eEF2K; read-out: % inhibition (range),0%
same,inhibition at 10 µM,eEF2K; read-out: inhibition (10 μM),-45.5%
same,inhibition at 10 µM,JAK1 domain2; read-out: % inhibition (range),0%
same,inhibition at 10 µM,JAK1 domain2; read-out: inhibition (10 μM),-16%
same,inhibition at 10 µM,PI4KB; read-out: % inhibition (range),0%
same,inhibition at 10 µM,PI4KB; read-out: inhibition (10 μM),34.8%
same,inhibition at 10 µM,NEK8; read-out: % inhibition (range),0%
same,inhibition at 10 µM,NEK8; read-out: inhibition (10 μM),10.6%
same,inhibition at 10 µM,MAP3K4; read-out: % inhibition (range),0%
same,inhibition at 10 µM,MAP3K4; read-out: inhibition (10 μM),3%
same,inhibition at 10 µM,AKT1; read-out: % inhibition (range),0%
same,inhibition at 10 µM,AKT1; read-out: inhibition (10 μM),26.4%
same,inhibition at 10 µM,JAK3 domain2; read-out: % inhibition (range),0%
same,inhibition at 10 µM,JAK3 domain2; read-out: inhibition (10 μM),-12.8%
same,inhibition at 10 µM,PKCz; read-out: % inhibition (range),0%
same,inhibition at 10 µM,PKCz; read-out: inhibition (10 μM),15.5%
same,inhibition at 10 µM,DGKH; read-out: % inhibition (range),0%
same,inhibition at 10 µM,DGKH; read-out: inhibition (10 μM),25.7%
same,inhibition at 10 µM,MST2; read-out: % inhibition (range),75 to 90%
same,inhibition at 10 µM,MST2; read-out: inhibition (10 μM),85.5%
same,inhibition at 10 µM,AurB; read-out: % inhibition (range),0%
same,inhibition at 10 µM,AurB; read-out: inhibition (10 μM),20.7%
same,inhibition at 10 µM,PKD3; read-out: % inhibition (range),50 to 75%
same,inhibition at 10 µM,PKD3; read-out: inhibition (10 μM),69.4%
same,inhibition at 10 µM,CaMKK2; read-out: % inhibition (range),50 to 75%
same,inhibition at 10 µM,CaMKK2; read-out: inhibition (10 μM),74.9%
same,inhibition at 10 µM,PIK3C3; read-out: % inhibition (range),0%
same,inhibition at 10 µM,PIK3C3; read-out: inhibition (10 μM),24.8%
same,inhibition at 10 µM,MARK3; read-out: % inhibition (range),35 to 50%
same,inhibition at 10 µM,MARK3; read-out: inhibition (10 μM),46.2%
same,inhibition at 10 µM,CK1g2; read-out: % inhibition (range),> 90%
same,inhibition at 10 µM,CK1g2; read-out: inhibition (10 μM),> 90%
same,inhibition at 10 µM,MAP3K5; read-out: % inhibition (range),0%
same,inhibition at 10 µM,MAP3K5; read-out: inhibition (10 μM),25.6%
same,inhibition at 10 µM,PLK1; read-out: % inhibition (range),0%
same,inhibition at 10 µM,PLK1; read-out: inhibition (10 μM),6.6%
same,inhibition at 10 µM,HPK1; read-out: % inhibition (range),50 to 75%
same,inhibition at 10 µM,HPK1; read-out: inhibition (10 μM),52.1%
same,inhibition at 10 µM,IKKa; read-out: % inhibition (range),0%
same,inhibition at 10 µM,IKKa; read-out: inhibition (10 μM),2.6%
same,inhibition at 10 µM,CaMK2g; read-out: % inhibition (range),0%
same,inhibition at 10 µM,CaMK2g; read-out: inhibition (10 μM),-13.6%
same,inhibition at 10 µM,NEK7; read-out: % inhibition (range),0%
same,inhibition at 10 µM,NEK7; read-out: inhibition (10 μM),-20.2%
same,inhibition at 10 µM,NEK1; read-out: % inhibition (range),0%
same,inhibition at 10 µM,NEK1; read-out: inhibition (10 μM),6.2%
same,inhibition at 10 µM,IRE1; read-out: % inhibition (range),0%
same,inhibition at 10 µM,IRE1; read-out: inhibition (10 μM),-17%
same,% inhibition (range),"AMPKa1, AMPKa2; 10 μM",0.0%
same,inhibition (10 μM),"AMPKa1, AMPKa2",1.8%
same,inhibition at 10 µM,OSR1; read-out: % inhibition (range),0%
same,inhibition at 10 µM,OSR1; read-out: inhibition (10 μM),1.4%
same,inhibition at 10 µM,PIK3CB; read-out: % inhibition (range),0%
same,inhibition at 10 µM,PIK3CB; read-out: inhibition (10 μM),23.1%
same,inhibition at 10 µM,STLK3; read-out: % inhibition (range),0%
same,inhibition at 10 µM,STLK3; read-out: inhibition (10 μM),1.1%
